Experimental data reported in patent US9149038B2, “4-amino-6-(heterocyclic)picolinates and 6-amino-2-(heterocyclic)pyrimidine-4-carboxylates and their use as herbicides” (Dow AgroSciences LLC, priority 2013, dated 2015).
Like-named read-outs stand apart in the source and are kept apart here.

Assays:
[1] = test system: Key Broadleaf Weed and Crop Species; assay: Post-Emergent Test II: postemergent herbicidal activity, visual rating after 14 d (Table 7); type: in vivo; details: post-emergence, 336 h; for pest or weed control at 35 g/ha: 35 g ai/ha; for pest or weed control at 70 g/ha: 70 g ai/ha; for pest or weed control at 140 g/ha: 140 g ai/ha
Procedure, shortened: (§1)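 Visual 0-100% injury score (0 no injury, 100 complete kill) at 14 d post-spray, relative to untreated plants. Seedlings at 1st-2nd true leaf stage; track sprayer at 187 L/ha, highest rate plus ½×, ¼×, ⅛×, 1/16× serial dilutions. Subirrigated after treatment.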

[2] = test system: Key Grass and Sedge Weeds as well as Grass Crops; assay: Post-Emergent Test II: postemergent herbicidal activity, visual rating after 14 d (Table 8); type: in vivo; details: post-emergence, 336 h; for pest or weed control at 35 g/ha: 35 g ai/ha; for pest or weed control at 70 g/ha: 70 g ai/ha; for pest or weed control at 140 g/ha: 140 g ai/ha
Procedure, shortened: as §1

[3] = lambsquarters (Chenopodium album), read-out: Visual Growth Reduction (%) 14 Days After Application CHEAL
[4] = oilseed rape, canola (Brassica napus), read-out: Visual Growth Reduction (%) 14 Days After Application BRSNN
[5] = redroot pigweed (Amaranthus retroflexus), read-out: Visual Growth Reduction (%) 14 Days After Application AMARE
[6] = sunflower (Helianthus annuus), read-out: Visual Growth Reduction (%) 14 Days After Application HELAN
[7] = velvetleaf (Abutilon theophrasti), read-out: Visual Growth Reduction (%) 14 Days After Application ABUTH
[8] = wild poinsettia (Euphorbia heterophylla), read-out: Visual Growth Reduction (%) 14 Days After Application EPHHL
[9] = barnyardgrass (Echinochloa crus-galli), read-out: Visual Growth Reduction (%) 14 Days After Application ECHCG
[10] = giant foxtail (Setaria faberi), read-out: Visual Growth Reduction (%) 14 Days After Application SETFA
[11] = maize, corn (Zea mays), read-out: Visual Growth Reduction (%) 14 Days After Application ZEAMX
[12] = rice (Oryza sativa), read-out: Visual Growth Reduction (%) 14 Days After Application ORYSA
[13] = wheat, spring (Triticum aestivum), read-out: Visual Growth Reduction (%) 14 Days After Application TRZAS
[14] = yellow nutsedge (Cyperus esculentus), read-out: Visual Growth Reduction (%) 14 Days After Application CYPES

Row | Compound | pest or weed control at 35 g/ha [1, 3] [%] | pest or weed control at 70 g/ha [1, 3] [%] | pest or weed control at 140 g/ha [1, 3] [%] | pest or weed control at 35 g/ha [1, 4] [%] | pest or weed control at 70 g/ha [1, 4] [%] | pest or weed control at 140 g/ha [1, 4] [%] | pest or weed control at 35 g/ha [1, 5] [%] | pest or weed control at 70 g/ha [1, 5] [%] | pest or weed control at 140 g/ha [1, 5] [%] | pest or weed control at 35 g/ha [1, 6] [%] | pest or weed control at 70 g/ha [1, 6] [%] | pest or weed control at 140 g/ha [1, 6] [%] | pest or weed control at 35 g/ha [1, 7] [%] | pest or weed control at 70 g/ha [1, 7] [%] | pest or weed control at 140 g/ha [1, 7] [%] | pest or weed control at 35 g/ha [1, 8] [%] | pest or weed control at 70 g/ha [1, 8] [%] | pest or weed control at 140 g/ha [1, 8] [%] | pest or weed control at 35 g/ha [2, 9] [%] | pest or weed control at 70 g/ha [2, 9] [%] | other results
1 | COc1c(N)nc(-c2ccc3c(c2F)OC(F)(F)O3)nc1C(=O)O [Compound 66] | 45 to 59 | 85 to 94 | 95 to 100 | 60 to 74 | 75 to 84 | 85 to 94 | 95 to 100 | 95 to 100 | 95 to 100 | 75 to 84 | 85 to 94 | 95 to 100 | 75 to 84 | 75 to 84 | 85 to 94 | 95 to 100 | 95 to 100 | 95 to 100 | 95 to 100 | 95 to 100 | pest or weed control at 140 g/ha [2, 9]: 95 to 100%; pest or weed control at 35 g/ha [2, 10]: 75 to 84%; pest or weed control at 70 g/ha [2, 10]: 75 to 84%; pest or weed control at 140 g/ha [2, 10]: 85 to 94%; pest or weed control at 35 g/ha [2, 11]: 60 to 74%; pest or weed control at 70 g/ha [2, 11]: 60 to 74%; pest or weed control at 140 g/ha [2, 11]: 75 to 84%; pest or weed control at 35 g/ha [2, 12]: 30 to 44%; pest or weed control at 70 g/ha [2, 12]: 30 to 44%; pest or weed control at 140 g/ha [2, 12]: 30 to 44%; pest or weed control at 35 g/ha [2, 13]: 45 to 59%; pest or weed control at 70 g/ha [2, 13]: 60 to 74%; pest or weed control at 140 g/ha [2, 13]: 60 to 74%; pest or weed control at 35 g/ha [2, 14]: 0 to 29%; pest or weed control at 70 g/ha [2, 14]: 95 to 100%; pest or weed control at 140 g/ha [2, 14]: 95 to 100%
2 | COc1c(N)nc(-c2cc3c(cc2F)OC(F)(F)O3)nc1C(=O)O [Compound 68] | 0 to 29 | 0 to 29 | 0 to 29 | 0 to 29 | 0 to 29 | 0 to 29 | 0 to 29 | 0 to 29 | 0 to 29 | 30 to 44 | 45 to 59 | 60 to 74 | 0 to 29 | 0 to 29 | 0 to 29 | 75 to 84 | 95 to 100 | 95 to 100 | 60 to 74 | 60 to 74 | pest or weed control at 140 g/ha [2, 9]: 75 to 84%; pest or weed control at 35 g/ha [2, 10]: 60 to 74%; pest or weed control at 70 g/ha [2, 10]: 60 to 74%; pest or weed control at 140 g/ha [2, 10]: 60 to 74%; pest or weed control at 35 g/ha [2, 11]: 45 to 59%; pest or weed control at 70 g/ha [2, 11]: 60 to 74%; pest or weed control at 140 g/ha [2, 11]: 75 to 84%; pest or weed control at 35 g/ha [2, 12]: 0 to 29%; pest or weed control at 70 g/ha [2, 12]: 0 to 29%; pest or weed control at 140 g/ha [2, 12]: 0 to 29%; pest or weed control at 35 g/ha [2, 13]: 0 to 29%; pest or weed control at 70 g/ha [2, 13]: 45 to 59%; pest or weed control at 140 g/ha [2, 13]: 45 to 59%; pest or weed control at 35 g/ha [2, 14]: 0 to 29%; pest or weed control at 70 g/ha [2, 14]: 0 to 29%; pest or weed control at 140 g/ha [2, 14]: 0 to 29%
